Results reported in ChEMBL document CHEMBL1143954, “Characterization of thyroid hormone receptor alpha (TRalpha)-specific analogs with varying inner- and outer-ring substituents” (Bioorg Med Chem, 2008).

Experiments:
[1] = biological target: T1, Thyroid hormone receptor beta (Homo sapiens, UniProt P10828)
T1 sequence (P10828 whole entry): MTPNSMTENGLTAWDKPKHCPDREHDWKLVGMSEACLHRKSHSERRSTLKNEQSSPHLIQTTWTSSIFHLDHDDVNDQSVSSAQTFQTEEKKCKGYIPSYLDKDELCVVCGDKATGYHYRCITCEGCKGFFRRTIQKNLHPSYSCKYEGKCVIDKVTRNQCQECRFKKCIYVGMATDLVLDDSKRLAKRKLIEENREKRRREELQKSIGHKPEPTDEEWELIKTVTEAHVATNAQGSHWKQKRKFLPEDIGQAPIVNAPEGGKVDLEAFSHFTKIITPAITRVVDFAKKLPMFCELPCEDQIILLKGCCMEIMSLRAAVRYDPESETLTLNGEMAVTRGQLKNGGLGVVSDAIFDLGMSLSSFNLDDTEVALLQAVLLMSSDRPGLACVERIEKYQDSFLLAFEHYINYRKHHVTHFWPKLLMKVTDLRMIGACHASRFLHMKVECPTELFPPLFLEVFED

[2] = biological target: T2, Thyroid hormone receptor alpha (Homo sapiens, UniProt P10827)
T2 sequence (P10827 whole entry): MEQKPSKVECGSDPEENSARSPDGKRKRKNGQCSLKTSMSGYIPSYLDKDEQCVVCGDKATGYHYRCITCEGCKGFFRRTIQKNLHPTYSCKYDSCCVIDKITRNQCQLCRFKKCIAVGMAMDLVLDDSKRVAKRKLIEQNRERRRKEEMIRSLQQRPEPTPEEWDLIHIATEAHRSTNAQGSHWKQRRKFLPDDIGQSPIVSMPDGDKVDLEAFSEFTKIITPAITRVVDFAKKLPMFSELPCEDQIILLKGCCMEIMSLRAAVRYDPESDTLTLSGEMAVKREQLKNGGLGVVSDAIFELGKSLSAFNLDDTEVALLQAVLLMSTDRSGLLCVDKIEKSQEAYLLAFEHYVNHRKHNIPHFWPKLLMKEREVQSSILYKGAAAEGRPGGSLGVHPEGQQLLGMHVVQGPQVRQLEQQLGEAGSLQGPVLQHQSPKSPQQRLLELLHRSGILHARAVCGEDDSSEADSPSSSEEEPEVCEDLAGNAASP

[3] = biological target: T2, Thyroid hormone receptor alpha; remark: listed apart in the source
Description: Effect on human TRalpha transactivation activity in HeLa cells by luciferase reporter assay

[4] = biological target: T1, Thyroid hormone receptor beta; remark: listed apart in the source
[5] = biological target: T2, Thyroid hormone receptor alpha; remark: listed apart in the source
Description: Effect on human TRalpha transactivation activity in U2OS cells by luciferase reporter assay

[6] = biological target: T1, Thyroid hormone receptor beta; remark: listed apart in the source

| Compound | EC50 [1] | Kd [2] | EC50 [3] | EC50 [4] | EC50 [5] | Kd [6] |
| --- | --- | --- | --- | --- | --- | --- |
| O=C1NC(=O)C(Cc2cc(I)c(Oc3ccc(O)c(Br)c3)c(I)c2)N1 (centres undefined) | 530 nM | 43 nM | 44 nM | 5200 nM | 206 nM | 68 nM |
| CC(C)c1cc(Oc2c(I)cc(CC3NC(=O)NC3=O)cc2I)ccc1O (centres undefined) | 58 nM | 1.2 nM | 11 nM | 390 nM | 34 nM | 1.7 nM |
| CCc1cc(Oc2c(I)cc(CC3NC(=O)NC3=O)cc2I)ccc1O (centres undefined) | 27 nM | 15 nM | 10 nM | 1400 nM | 87 nM | 18 nM |
| O=C1NC(=O)C(Cc2cc(I)c(Oc3ccc(O)cc3)c(I)c2)N1 (centres undefined) | > 10000 nM | 1700 nM | > 10000 nM | > 20000 nM | > 20000 nM | 2000 nM |

Further compounds by falling EC50 [1], results first:

| EC50 [1] | Kd [2] | EC50 [3] | EC50 [4] | EC50 [5] | Kd [6] | Compound |
| --- | --- | --- | --- | --- | --- | --- |
| 265 nM | 82 nM | 42 nM | 8000 nM | 870 nM | 119 nM | COc1cc(Oc2c(I)cc(CC3NC(=O)NC3=O)cc2I)ccc1O (centres undefined) |
| 216 nM | 24 nM | 21 nM | 2000 nM | 105 nM | 36 nM | O=C1NC(=O)C(Cc2cc(I)c(Oc3ccc(O)c(I)c3)c(I)c2)N1 (centres undefined) |
| 180 nM | 42 nM | 27 nM | 4000 nM | 146 nM | 53 nM | Cc1cc(Oc2c(I)cc(CC3NC(=O)NC3=O)cc2I)ccc1O (centres undefined) |
| 100 nM | 25 nM | 39 nM | 2000 nM | 145 nM | 49 nM | O=C1NC(=O)C(Cc2cc(I)c(Oc3ccc(O)c(C4CC4)c3)c(I)c2)N1 (centres undefined) |
| 32 nM | 17 nM | 8.4 nM | 421 nM | 128 nM | 18.4 nM | CC(C)c1cc(Oc2c(Br)cc(CC3NC(=O)NC3=O)cc2Br)ccc1O (centres undefined) |
